Assay results: patent publication US20080113926A1, “9A-Carbamoyl-Y-Aminopropyl- And 9A-Thiocabamoyl-Y-Aminopropyl-Azalides With Antimalarial Activity” (priority 2005, published 2008)
Converted amounts (≈) assume the structure as drawn.

How the values were obtained:
Type in all cases: cell-based
[1] = test system: Plasmodium falciparum clone CDC/Sierra Leone I (D-6); experiment: In vitro antimalarial [3H]-hypoxanthine incorporation serial dilution assay, D6; settings: Plasmodium falciparum; P. falciparum D6, parasites exposed for 72 hours
Excerpt: (§1) The in vitro screens for intrinsic antimalarial activity were based on modifications of the procedures described by Desjardins R E, Canfield C J, Haynes J D, Chulay J D. (Quantitative assessment of antimalarial activity in vitro by a semiautomated microdilution technique. Antimicrob Agents Chemother. 1979 December; 16(6):710-8), Chulay J D, Haynes J D, Diggs C L. (Plasmodium falciparum: Assessment of in vitro growth by [3H]hypoxanthine incorporation. Exp. Parasitol. 1983 55:138-146), and Milhous W K, Weatherly N F, Bowdre J H, Desjardins R E. (In vitro activities of and mechanisms of resistance to antifol antimalarial drugs. Antimicrob Agents Chemother. 1985 April; 27(4):525-30). The system was limited to the assessment of the intrinsic activity against the erythrocytic asexual life cycle (blood schizontocides). Two Plasmodium falciparum clones from CDC/Indochina III (W-2) and CDC/Sierra Leone I (D-6) (Oduola A M, Weatherly N F, Bowdre J H, Desjardins R E. Plasmodium falciparum: cloning by single-erythrocyte micromanipulation and heterogeneity in vitro. Exp Parasitol. 1988 66(1):86-95) were used for all assays. TM91C235, a multiple drug resistant isolate from Thailand, was used for the prescreening assay. W-2 is resistant to chloroquine, quinine, and pyrimethamine and susceptible to mefloquine. D-6 tends to be more resistant to mefloquine and susceptible to chloroquine, quinine, and pyrimethamine. All documents cited in this paragraph are incorporated by reference in their entirety.
(§2) All parasites were maintained in continuous long term cultures in RPMI-1640 medium supplemented with 6% washed human A positive (A+) (erythrocytes, 25 mM Hepes, […], and 10% heat inactivated A+ human plasma or ALBUMAX® (lipid-rich bovine serum albumin; Invitrogen, Carlsbad, Calif.). All cultures and assays were conducted at 37° C. under an atmosphere of 5% CO2 and 5% O2, with a balance of N2.
(§3) The prescreening assay uses TM91C235 diluted at a 0.4% parasitemia in a 1% hematocrit in folic acid free and p-aminobenzoic acid free media RPMI-1640 and ALBUMAX®. One mg of the compound is typically dissolved in 100 μl of dimethyl sulfoxide (DMSO). The compound is further diluted in culture medium (FF) with ALBUMAX® for the first initial starting concentration. The rest of the stock drug solution was kept at −70° C. The isolate was preexposed, in duplicate, at three concentrations (25,000 ng/ml, 2,500 ng/ml, and 25 ng/ml) of the test compound for 48 hr in a 96-well microtiter plate (MTP) using the BIOMEK® 2000 automated laboratory workstation. Each MTP contains chloroquine as control to assess the relative activity of the compound and to monitor the response of TM91C235.
(§4) After the preincubation, [^3H]-hypoxanthine was added to each well of the MTP. (The assay relies on the incorporation of radiolabeled hypoxanthine by the parasites, which indicates reproduction, and inhibition of isotope incorporation was attributed to activity of known or candidate antimalarial drugs). After 72 hr of total incubation time, the MTP were frozen to lyse the erythrocytes and parasites. The parasite DNA was recovered by harvesting the lysate onto glass-fiber filter plates using a Packard FilterMate™ Cell Harvester. The radioactivity was counted on a Packard TopCount™ microplate scintillation counter. The results were recorded as counts per minutes (CPM) per well at each drug concentration divided by the arithmetic mean of the CPM from the three untreated infection parasite control wells.
(§5) The serial dilution assay was conducted using the same assay conditions and stock solution of the compound used for the preliminary screen, described above. Both the D-6 and the W-2 clones were used. The compounds were diluted two-fold over 11 different concentration ranges with a starting concentration that was based on the preliminary screen. […]

[2] = test system: Plasmodium falciparum clone CDC/Indochina III (W-2); experiment: In vitro antimalarial [3H]-hypoxanthine incorporation serial dilution assay, W2; settings: Plasmodium falciparum, W2, 72 h, P. falciparum W2, parasites exposed for 72 hours
Excerpt: as §1, §2, §3, §4, §5

[3] = test system: Plasmodium falciparum TM91C235; experiment: In vitro antimalarial [3H]-hypoxanthine incorporation serial dilution assay, TM91C235; settings: Plasmodium falciparum; P. falciparum TM91C235, parasites exposed for 72 hours

SMILES	IC50 [1] [mg/L]	IC50 [2] [mg/L]	IC50 [3] [mg/L]
CC[C@H]1OC(=O)[C@H](C)[C@@H](O[C@H]2C[C@@](C)(OC)[C@@H](O)[C@H](C)O2)[C@H](C)[C@@H](O[C@@H]2O[C@H](C)C[C@H](N(C)C)[C@H]2O)[C@](C)(O)C[C@@H](C)CN(CCCNC(=O)Nc2ccc3ccccc3c2)[C@H](C)[C@@H](O)[C@]1(C)O [Compound 1]	0.145 (≈ 0.151 µM)	0.141 (≈ 0.146 µM)	0.0832 (≈ 0.0866 µM)
CC[C@H]1OC(=O)[C@H](C)[C@@H](O[C@H]2C[C@@](C)(OC)[C@@H](O)[C@H](C)O2)[C@H](C)[C@@H](O[C@@H]2O[C@H](C)C[C@H](N(C)C)[C@H]2O)[C@](C)(O)C[C@@H](C)CN(CCCNC(=O)Nc2ccccc2C(F)(F)F)[C@H](C)[C@@H](O)[C@]1(C)O [Compound 2]	0.311 (≈ 0.318 µM)	0.36 (≈ 0.368 µM)	0.23 (≈ 0.234 µM)
CC[C@H]1OC(=O)[C@H](C)[C@@H](O[C@H]2C[C@@](C)(OC)[C@@H](O)[C@H](C)O2)[C@H](C)[C@@H](O[C@@H]2O[C@H](C)C[C@H](N(C)C)[C@H]2O)[C@](C)(O)C[C@@H](C)CN(CCCNC(=S)NCCCc2ccccc2)[C@H](C)[C@@H](O)[C@]1(C)O [Compound 3]	0.176 (≈ 0.181 µM)	0.112 (≈ 0.116 µM)	0.117 (≈ 0.12 µM)
CC[C@H]1OC(=O)[C@H](C)[C@@H](O[C@H]2C[C@@](C)(OC)[C@@H](O)[C@H](C)O2)[C@H](C)[C@@H](O[C@@H]2O[C@H](C)C[C@H](N(C)C)[C@H]2O)[C@](C)(O)C[C@@H](C)CN(CCCNC(=S)N(CCC#N)CCCc2ccccc2)[C@H](C)[C@@H](O)[C@]1(C)O [Compound 4]	0.228 (≈ 0.223 µM)	0.0768 (≈ 0.0751 µM)	0.0541 (≈ 0.0529 µM)
CC[C@H]1OC(=O)[C@H](C)[C@@H](O[C@H]2C[C@@](C)(OC)[C@@H](O)[C@H](C)O2)[C@H](C)[C@@H](O[C@@H]2O[C@H](C)C[C@H](N(C)C)[C@H]2O)[C@](C)(O)C[C@@H](C)CN(CCCN(CCC#N)C(=S)NCCc2ccccc2)[C@H](C)[C@@H](O)[C@]1(C)O [Compound 5]	0.091 (≈ 0.0902 µM)	0.169 (≈ 0.167 µM)	0.0732 (≈ 0.0726 µM)
CC[C@H]1OC(=O)[C@H](C)[C@@H](O[C@H]2C[C@@](C)(OC)[C@@H](O)[C@H](C)O2)[C@H](C)[C@@H](O[C@@H]2O[C@H](C)C[C@H](N(C)C)[C@H]2O)[C@](C)(O)C[C@@H](C)CN(CCCNC(=O)NC(C)c2cccc3ccccc23)[C@H](C)[C@@H](O)[C@]1(C)O (some centres unmarked) [Compound 6]	0.292 (≈ 0.295 µM)	0.246 (≈ 0.249 µM)	0.118 (≈ 0.119 µM)
CC[C@H]1OC(=O)[C@H](C)[C@@H](O[C@H]2C[C@@](C)(OC)[C@@H](O)[C@H](C)O2)[C@H](C)[C@@H](O[C@@H]2O[C@H](C)C[C@H](N(C)C)[C@H]2O)[C@](C)(O)C[C@@H](C)CN(CCCN(CCC#N)C(=O)Nc2ccc3ccccc3c2)[C@H](C)[C@@H](O)[C@]1(C)O [Compound 7]	0.156 (≈ 0.154 µM)	0.298 (≈ 0.294 µM)	0.143 (≈ 0.141 µM)
CC[C@H]1OC(=O)[C@H](C)[C@@H](O[C@H]2C[C@@](C)(O)[C@@H](O)[C@H](C)O2)[C@H](C)[C@@H](O[C@@H]2O[C@H](C)C[C@H](N(C)C)[C@H]2O)[C@](C)(O)C[C@@H](C)CN(CCCNC(=O)Nc2cccc3ccccc23)[C@H](C)[C@@H](O)[C@]1(C)O [Compound 8]	0.268 (≈ 0.282 µM)	0.176 (≈ 0.186 µM)	0.143 (≈ 0.151 µM)
CC[C@H]1OC(=O)[C@H](C)[C@@H](O[C@H]2C[C@@](C)(OC)[C@@H](O)[C@H](C)O2)[C@H](C)[C@@H](O[C@@H]2O[C@H](C)C[C@H](N(C)C)[C@H]2O)[C@](C)(O)C[C@@H](C)CN(CCCNC(=S)Nc2cccc3ccccc23)[C@H](C)[C@@H](O)[C@]1(C)O [Compound 9]	0.144 (≈ 0.147 µM)	0.17 (≈ 0.174 µM)	0.159 (≈ 0.163 µM)
CC[C@H]1OC(=O)[C@H](C)[C@@H](O[C@H]2C[C@@](C)(OC)[C@@H](O)[C@H](C)O2)[C@H](C)[C@@H](O[C@@H]2O[C@H](C)C[C@H](N(C)C)[C@H]2O)[C@](C)(O)C[C@@H](C)CN(CCCN(CCC#N)C(=O)NC(C)c2cccc3ccccc23)[C@H](C)[C@@H](O)[C@]1(C)O (some centres unmarked) [Compound 10]	0.254 (≈ 0.244 µM)	0.308 (≈ 0.296 µM)	0.16 (≈ 0.153 µM)
CC[C@H]1OC(=O)[C@H](C)[C@@H](O[C@H]2C[C@@](C)(OC)[C@@H](O)[C@H](C)O2)[C@H](C)[C@@H](O[C@@H]2O[C@H](C)C[C@H](N(C)C)[C@H]2O)[C@](C)(O)C[C@@H](C)CN(CCCN(CCC#N)C(=O)Nc2ccc(Cl)cc2Cl)[C@H](C)[C@@H](O)[C@]1(C)O [Compound 11]	0.276 (≈ 0.267 µM)	0.217 (≈ 0.21 µM)	0.161 (≈ 0.156 µM)
CC[C@H]1OC(=O)[C@H](C)[C@@H](O[C@H]2C[C@@](C)(OC)[C@@H](O)[C@H](C)O2)[C@H](C)[C@@H](O[C@@H]2O[C@H](C)C[C@H](N(C)C)[C@H]2O)[C@](C)(O)C[C@@H](C)CN(CCCN(CCC#N)C(=S)NCc2ccccc2)[C@H](C)[C@@H](O)[C@]1(C)O [Compound 12]	0.233 (≈ 0.235 µM)	0.2 (≈ 0.201 µM)	0.163 (≈ 0.164 µM)
CC[C@H]1OC(=O)[C@H](C)[C@@H](O[C@H]2C[C@@](C)(OC)[C@@H](O)[C@H](C)O2)[C@H](C)[C@@H](O[C@@H]2O[C@H](C)C[C@H](N(C)C)[C@H]2O)[C@](C)(O)C[C@@H](C)CN(CCCNC(=S)NCc2ccccc2)[C@H](C)[C@@H](O)[C@]1(C)O [Compound 13]	0.291 (≈ 0.309 µM)	0.18 (≈ 0.191 µM)	0.189 (≈ 0.2 µM)
CC[C@H]1OC(=O)[C@H](C)[C@@H](O[C@H]2C[C@@](C)(OC)[C@@H](O)[C@H](C)O2)[C@H](C)[C@@H](O[C@@H]2O[C@H](C)C[C@H](N(C)C)[C@H]2O)[C@](C)(O)C[C@@H](C)CN(CCCNC(=S)NCCc2ccccc2)[C@H](C)[C@@H](O)[C@]1(C)O [Compound 14]	0.232 (≈ 0.242 µM)	0.18 (≈ 0.188 µM)	0.215 (≈ 0.225 µM)
CC[C@H]1OC(=O)[C@H](C)[C@@H](O[C@H]2C[C@@](C)(OC)[C@@H](O)[C@H](C)O2)[C@H](C)[C@@H](O[C@@H]2O[C@H](C)C[C@H](N(C)C)[C@H]2O)[C@](C)(O)C[C@@H](C)CN(CCCN(CCC#N)C(=O)Nc2cccc3ccccc23)[C@H](C)[C@@H](O)[C@]1(C)O [Compound 15]	0.539 (≈ 0.531 µM)	1.42 (≈ 1.4 µM)	0.263 (≈ 0.259 µM)
CC[C@H]1OC(=O)[C@H](C)[C@@H](O)[C@H](C)[C@@H](O[C@@H]2O[C@H](C)C[C@H](N(C)C)[C@H]2O)[C@](C)(O)C[C@@H](C)CN(CCCN(CCC#N)C(=S)NCCc2ccccc2)[C@H](C)[C@@H](O)[C@]1(C)O [Compound 31]	0.192 (≈ 0.226 µM)		0.157 (≈ 0.184 µM)
CC[C@H]1OC(=O)[C@H](C)[C@@H](O)[C@H](C)[C@@H](O[C@@H]2O[C@H](C)C[C@H](N(C)C)[C@H]2O)[C@](C)(O)C[C@@H](C)CN(CCCN(CCC#N)C(=S)NCCCc2ccccc2)[C@H](C)[C@@H](O)[C@]1(C)O [Compound 32]	0.155 (≈ 0.18 µM)		0.106 (≈ 0.122 µM)
CC[C@H]1OC(=O)[C@H](C)[C@@H](O)[C@H](C)[C@@H](O[C@@H]2O[C@H](C)C[C@H](N(C)C)[C@H]2O)[C@](C)(O)C[C@@H](C)CN(CCCN(CCC#N)C(=O)Nc2ccc(Cl)cc2Cl)[C@H](C)[C@@H](O)[C@]1(C)O [Compound 33]	0.962 (≈ 1.1 µM)		0.277 (≈ 0.316 µM)
CC[C@H]1OC(=O)[C@H](C)[C@@H](O)[C@H](C)[C@@H](O[C@@H]2O[C@H](C)C[C@H](N(C)C)[C@H]2O)[C@](C)(O)C[C@@H](C)CN(CCCN(CCC#N)C(=O)Nc2ccc3ccccc3c2)[C@H](C)[C@@H](O)[C@]1(C)O [Compound 34]	0.203 (≈ 0.237 µM)		0.191 (≈ 0.223 µM)
